The target of one assay is T1, COX-2 (Ovis aries, UniProt P79208).
T1 construct: gene PTGS2
T1 sequence (P79208 17-603): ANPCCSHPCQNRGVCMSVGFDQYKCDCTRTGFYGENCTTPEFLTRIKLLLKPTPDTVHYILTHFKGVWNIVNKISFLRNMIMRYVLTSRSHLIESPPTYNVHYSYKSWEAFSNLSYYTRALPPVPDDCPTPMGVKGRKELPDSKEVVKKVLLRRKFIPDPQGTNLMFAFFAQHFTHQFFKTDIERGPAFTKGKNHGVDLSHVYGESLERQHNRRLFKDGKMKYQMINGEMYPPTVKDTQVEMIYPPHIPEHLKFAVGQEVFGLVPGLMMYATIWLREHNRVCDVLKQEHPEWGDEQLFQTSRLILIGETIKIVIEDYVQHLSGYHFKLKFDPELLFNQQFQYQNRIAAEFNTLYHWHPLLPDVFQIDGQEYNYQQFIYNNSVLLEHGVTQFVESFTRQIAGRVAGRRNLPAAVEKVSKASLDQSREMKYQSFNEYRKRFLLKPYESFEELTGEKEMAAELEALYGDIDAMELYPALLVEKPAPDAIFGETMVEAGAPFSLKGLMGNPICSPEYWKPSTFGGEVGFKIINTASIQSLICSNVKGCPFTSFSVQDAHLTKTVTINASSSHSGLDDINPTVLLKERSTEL
The assay is described as follows: COX (ovine) inhibitor screening assay kit, PGF2α produced by SnCl2 reduction of COX-derived PGH2, read at […] nm. The assay is classed as biochemical.

For the next assay, the target named is T2, COX-1 (Ovis aries, UniProt P05979).
T2 construct: gene PTGS1
T2 sequence (P05979 25-600): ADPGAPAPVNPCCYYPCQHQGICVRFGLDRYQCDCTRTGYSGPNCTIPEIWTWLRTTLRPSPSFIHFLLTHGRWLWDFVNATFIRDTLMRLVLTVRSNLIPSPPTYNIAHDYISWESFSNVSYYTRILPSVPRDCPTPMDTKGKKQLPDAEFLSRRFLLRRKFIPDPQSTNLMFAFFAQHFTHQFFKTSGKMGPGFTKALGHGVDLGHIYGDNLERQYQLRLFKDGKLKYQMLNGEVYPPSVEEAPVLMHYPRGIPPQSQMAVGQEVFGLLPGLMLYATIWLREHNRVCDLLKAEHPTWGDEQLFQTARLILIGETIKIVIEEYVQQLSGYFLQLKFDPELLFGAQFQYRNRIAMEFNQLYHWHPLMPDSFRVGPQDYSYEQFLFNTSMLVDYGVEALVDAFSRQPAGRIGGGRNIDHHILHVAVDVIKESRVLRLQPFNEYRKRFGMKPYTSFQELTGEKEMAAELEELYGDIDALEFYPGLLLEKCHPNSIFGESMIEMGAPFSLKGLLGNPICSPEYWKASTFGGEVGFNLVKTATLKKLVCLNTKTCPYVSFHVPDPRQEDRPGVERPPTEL
The assay is described as follows: COX (ovine) inhibitor screening assay kit; […] inhibition at […]. Format: biochemical.

Structures are written as SMILES.

Take `C=C(C)[C@@H]1CC[C@]2(CO)CC[C@]3(C)[C@H](CC[C@@H]4[C@@]5(C)CC[C@H](O)C(C)(C)[C@@H]5CC[C@]43C)[C@@H]12` [AN-10]: the IC50 was < 1 µM at COX-2 and > 10 µM at COX-1.

As a reminder, the IC50 is the concentration that gives 50% inhibition. A high value points to weaker potency.

Source of the values: PMC9174266, “Isolation, characterization and biological activities of betulin from Acacia nilotica bark” (Scientific Reports, 2022).
